This is an account of results in patent publication US6781015B2, “Aminobenzophenones and photopolymerizable compositions including the same” (Albemarle Corporation, priority 1997, dated 2004).

This data set has as its system Salmonella typhimurium tester strain TA98. The data set can be described thus: Salmonella/Mammalian-Microsome Reverse Mutation Screening Assay (Ames Test). Particulars: for Ames Test outcome (mutagenicity): tester strain TA98 in the presence of S9 mix. More on the design: key to Background lawn: 1 = normal; 2 = slightly reduced; 3 = moderately reduced; 4 = extremely reduced; 5 = absent; 6 = obscured by precipitate; sp = slight precipitate; mp = moderate precipitate (requires hand count); hp = heavy precipitate (requires hand count). The format is cell-based. On the procedure: Mutagenicity can be measured by a variety of assays. The most commonly used method is the Salmonella/Mammalian-Microsome Reverse Mutation Screening Assay (Ames Test), which commonly uses four or five strains of Salmonella bacteria to detect different types of mutations.
TMMK, TEMK and MEAB were evaluated for the ability to induce reverse mutations at the histidine locus in the genome of a specific Salmonella typhimurium tester strain in the presence of an exogenous metabolic activation system of mammalian microsomal enzymes derived from Aroclor™-induced rat liver (S9). The tester strain used in the mutagenicity assay was Salmonella typhimurium tester strain TA98 with added activation. The assay was conducted using eight doses of the test article, along with the appropriate vehicle and positive controls in the presence of S9 mix (S9 homogenate was purchased from Molecular Toxicology, Inc., Annapolis, Md. 21401, Batch 0646, 43.4 mg of protein per ml). Positive controls were also plated in the absence of S9 mix. All doses of test article, vehicle, and positive controls were plated in triplicate.
The test article TMMK was stored at room temperature. Acetone (CAS# 67-64-1, Fisher Scientific Co., Lot 961140) was used as the vehicle. At 20 mg per ml, which was the most concentrated stock solution which could be prepared, the test article formed a clear, light yellow solution. The test article remained a solution in all succeeding dilutions prepared for the mutagenicity assay. The maximum aliquot of acetone which can be used in the test system is 200 μl. Thus, the maximum concentration which could be tested was 4,000 μg per plate. The test article and vehicle controls were plated using a 200 μl plating aliquot. Positive control articles were plated using 50 μl plating aliquot.
The test article TEMK was stored at room temperature. Acetone (CAS# 67-64-1, Fisher Scientific Co., Lot 961140) was used as the vehicle. At 100 mg per ml, which was the most concentrated stock solution prepared, the test article formed a clear, yellow solution. The test article remained a solution in all succeeding dilutions prepared for the mutagenicity assay. The test article, vehicle controls and positive control articles were plated using a 50 μl plating aliquot.
The test article MEAB was stored at room temperature. Acetone (CAS#67-64-1, Fisher Scientific Co., Lot 961140) was used as the vehicle. At 25 mg per ml, which was the most concentrated stock solution prepared, the test article formed a clear, light yellow solution. The test article remained a solution in all succeeding dilutions prepared for the mutagenicity assay. The test article and vehicle controls were plated using a 200 μl plating aliquot. Positive control articles were plated using a 50 μl plating aliquot.
The data are presented as individual plate counts along with a mean and standard deviation.

Where [1] appears, read: TA98, rat liver S9, 3.33 μg/plate.
Where [2] appears, read: TA98, rat liver S9, 3.33 μg/plate, plates 1-3.
The mark [3] stands for this setting: TA98, rat liver S9, 10.0 μg/plate.
Setting [4] is: TA98, rat liver S9, 10.0 μg/plate, plates 1-3.
The mark [5] stands for this setting: TA98, rat liver S9, 33.3 μg/plate.
[6] abbreviates: TA98, rat liver S9, 33.3 μg/plate, plates 1-3.
[7] abbreviates: TA98, rat liver S9, 100 μg/plate.
[8] abbreviates: TA98, rat liver S9, 100 μg/plate, plates 1-3.
[9] abbreviates: TA98, rat liver S9, 333 μg/plate.
Setting [10] is: TA98, rat liver S9, 333 μg/plate, plates 1-3.
Where [11] appears, read: TA98, rat liver S9, 1000 μg/plate.
Where [12] appears, read: TA98, rat liver S9, 1000 μg/plate, plates 1-3.
Where [13] appears, read: TA98, rat liver S9, 3330 μg/plate.
[14] abbreviates: TA98, rat liver S9, 3330 μg/plate, plates 1-3.
The mark [15] stands for this setting: TA98, rat liver S9, 5000 μg/plate.
Where [16] appears, read: TA98, rat liver S9, 5000 μg/plate, plates 1-3.
The mark [17] stands for this setting: Table 1, TA98, rat liver S9, 3.33 μg/plate.
Setting [18] is: Table 1, TA98, rat liver S9, 10.0 μg/plate.
Where [19] appears, read: Table 1, TA98, rat liver S9, 33.3 μg/plate.
[20] abbreviates: Table 1, TA98, rat liver S9, 100 μg/plate.
Where [21] appears, read: Table 1, TA98, rat liver S9, 333 μg/plate.
Where [22] appears, read: Table 1, TA98, rat liver S9, 1000 μg/plate.
The mark [23] stands for this setting: Table 1, TA98, rat liver S9, 3330 μg/plate.
The mark [24] stands for this setting: Table 1, TA98, rat liver S9, 5000 μg/plate.
The mark [25] stands for this setting: Table 2 summary, TA98, rat liver S9, 3.33 μg/plate.
[26] abbreviates: Table 2 summary, TA98, rat liver S9, 10.0 μg/plate.
Setting [27] is: Table 2 summary, TA98, rat liver S9, 33.3 μg/plate.
[28] abbreviates: Table 2 summary, TA98, rat liver S9, 100 μg/plate.
[29] abbreviates: Table 2 summary, TA98, rat liver S9, 333 μg/plate.
Where [30] appears, read: Table 2 summary, TA98, rat liver S9, 1000 μg/plate.
Where [31] appears, read: Table 2 summary, TA98, rat liver S9, 3330 μg/plate.
Setting [32] is: Table 2 summary, TA98, rat liver S9, 5000 μg/plate.

Values joined by “and” are separate entries in the source; they are usually repeats but may differ in a detail not shown here. Equal values may be shown once.

Take `Nc1ccc2cc3ccccc3cc2c1` [2-aminoanthracene]: the Background lawn by setting is: (Table 1, positive control, TA98, rat liver S9, 2.5 μg/plate, in the TMMK, TEMK and MEAB runs) 1; (Table 2 summary, positive control, TA98, rat liver S9, 2 5 μg/plate, in the TMMK, TEMK and MEAB runs) 1. Moreover, for the setting “positive control, TA98, rat liver S9, 2.5 μg/plate, plates 1-3, in the TMMK, TEMK and MEAB runs”, the “Individual plate counts, revertants per plate” value is 1053 revertants per plate and 1225 revertants per plate and 1226 revertants per plate and 920 revertants per plate and 932 revertants per plate and 1264 revertants per plate and 1032 revertants per plate and 1133 revertants per plate and 1196 revertants per plate. Also, the “Mean revertants per plate” value (positive control, TA98, rat liver S9, 2 5 μg/plate, in the TMMK, TEMK and MEAB runs) was 968 revertants per plate and 1143 revertants per plate and 1216 revertants per plate.
As to `CCN(C)c1ccc(C(=O)c2ccc(N(C)CC)cc2)cc1` [MEAB, 4,4′-bis(methylethylamino)benzophenone], the “Ames Test outcome (mutagenicity)” value is “did not cause a positive increase”. Besides, under setting [1], the “Mean revertants per plate” value came out at 19 revertants per plate. The “Individual plate counts, revertants per plate” value under setting [2] was 21 revertants per plate and 22 revertants per plate and 13 revertants per plate. Besides, the “Mean revertants per plate” value under setting [3] stood at 21 revertants per plate. In addition, under setting [4], the “Individual plate counts, revertants per plate” value is 28 revertants per plate and 11 revertants per plate and 25 revertants per plate. Under setting [5], the “Mean revertants per plate” value was found to be 24 revertants per plate. For the same compound, under setting [6], the “Individual plate counts, revertants per plate” value was 25 revertants per plate and 24 revertants per plate (2×). The “Mean revertants per plate” value under setting [7] was 19 revertants per plate. Also, the “Individual plate counts, revertants per plate” value under setting [8] was 18 revertants per plate and 20 revertants per plate (2×). The “Mean revertants per plate” value under setting [9] was determined as 24 revertants per plate. Besides, the “Individual plate counts, revertants per plate” value under setting [10] is 31 revertants per plate and 19 revertants per plate and 21 revertants per plate. The “Mean revertants per plate” value under setting [11] is listed as 27 revertants per plate. In addition, the “Individual plate counts, revertants per plate” value under setting [12] is 23 revertants per plate and 21 revertants per plate and 36 revertants per plate. Further, under setting [13], the “Mean revertants per plate” value came out at 19 revertants per plate. Under setting [14], the “Individual plate counts, revertants per plate” value is 14 revertants per plate and 17 revertants per plate and 27 revertants per plate. For the same compound, under setting [15], the “Mean revertants per plate” value is reported as 24 revertants per plate. For the same compound, under setting [16], the “Individual plate counts, revertants per plate” value was 23 revertants per plate (2×) and 27 revertants per plate. Under setting [17], the Background lawn is 1. This compound gave a Background lawn under setting [18] of 1. Under setting [19], the Background lawn is 1. Further, the Background lawn under setting [20] was found to be 1 sp. This compound also showed a Background lawn under setting [21] of 1 mp. The compound also registered a Background lawn under setting [22] of 1 mp. This compound gave a Background lawn under setting [23] of 1 hp. Also, the Background lawn under setting [24] stood at 1 hp. Under setting [25], this compound gave a Background lawn of 1. For the same compound, the Background lawn under setting [26] was 1. The same compound registered a Background lawn under setting [27] of 1. This compound returned a Background lawn under setting [28] of 1 sp. The same compound came in with a Background lawn under setting [29] of 1 mp. The Background lawn under setting [30] turned out to be 1 mp. This compound also displayed a Background lawn under setting [31] of 1 hp. For the same compound, under setting [32], the Background lawn was 1 hp.
Take `CCN(CC)c1ccc(C(=O)c2ccc(N(CC)CC)cc2)cc1` [TEMK, 4,4′-bis(diethylamino)benzophenone]: the “Ames Test outcome (mutagenicity)” value is reported as “did not cause a positive increase”. Besides, the “Mean revertants per plate” value under setting [1] is reported as 25 revertants per plate. In addition, the “Individual plate counts, revertants per plate” value under setting [2] was 22 revertants per plate (2×) and 30 revertants per plate. Under setting [3], the “Mean revertants per plate” value amounted to 25 revertants per plate. In addition, under setting [4], the “Individual plate counts, revertants per plate” value was 30 revertants per plate and 24 revertants per plate and 20 revertants per plate. Besides, under setting [5], the “Mean revertants per plate” value is reported as 18 revertants per plate. The “Individual plate counts, revertants per plate” value under setting [6] is 13 revertants per plate and 23 revertants per plate and 19 revertants per plate. Under setting [7], the “Mean revertants per plate” value is recorded as 26 revertants per plate. For the same compound, under setting [8], the “Individual plate counts, revertants per plate” value was 28 revertants per plate and 26 revertants per plate and 24 revertants per plate. Further, under setting [9], the “Mean revertants per plate” value stood at 19 revertants per plate. The “Individual plate counts, revertants per plate” value under setting [10] was 20 revertants per plate and 17 revertants per plate and 19 revertants per plate. Also, the “Mean revertants per plate” value under setting [11] amounted to 24 revertants per plate. Moreover, the “Individual plate counts, revertants per plate” value under setting [12] is 32 revertants per plate and 23 revertants per plate and 17 revertants per plate. The “Mean revertants per plate” value under setting [13] was found to be 22 revertants per plate. Further, the “Individual plate counts, revertants per plate” value under setting [14] was 27 revertants per plate and 15 revertants per plate and 25 revertants per plate. For the same compound, the “Mean revertants per plate” value under setting [15] was determined as 22 revertants per plate. Moreover, the “Individual plate counts, revertants per plate” value under setting [16] was 27 revertants per plate and 19 revertants per plate (2×). The Background lawn under setting [17] turned out to be 1. The compound further came in with a Background lawn under setting [18] of 1. Further, the Background lawn under setting [19] was determined as 1. Moreover, under setting [20], the Background lawn turned out to be 1. Besides, the Background lawn under setting [21] is 1 sp. This compound returned a Background lawn under setting [22] of 1 mp. Under setting [23], this compound registered a Background lawn of 1 mp. This compound also gave a Background lawn under setting [24] of 1 mp. In addition, the Background lawn under setting [25] is 1. Further, the Background lawn under setting [26] is listed as 1. For the same compound, the Background lawn under setting [27] was 1. The compound further gave a Background lawn under setting [28] of 1. This compound yielded a Background lawn under setting [29] of 1 sp. This compound yielded a Background lawn under setting [30] of 1 mp. The compound also returned a Background lawn under setting [31] of 1 mp. The Background lawn under setting [32] stood at 1 mp.
